The source of these data is BindingDB's records for patent US20240368150 (Hoffmann-La Roche, 2024).

The target of experiment [1] is Diacylglycerol kinase alpha (Homo sapiens, UniProt P23743). Briefly: In Vitro DGK Inhibition Assays. As for the experimental part: DGK α and ζ kinase use ATP to phosphorylate the substrate 1,2-dilauroyl-sn-glycerol (DLG, incorporated in the liposomes). ATP is converted to ADP as a result of this enzymatic reaction. After the kinase reaction, an ATP-depletion reagent is added to terminate the kinase reaction and deplete any remaining ATP, leaving only ADP. Second, a detection reagent is added to simultaneously convert ADP to ATP and allow the newly synthesized ATP to be converted to light using a coupled luciferase/luciferin reaction. A concentrated liposome solution was prepared in assay buffer without DTT and BSA: 2 mM of DLG in 21 mM of total liposome (2 mM DLG/8 mM PS/11 mM PC). […] The reactions were started by addition of DGK α and ζ kinases at 4 nM and 2 nM final concentrations, respectively. After 1 hour reaction, the amount of ADP formed was detected with the ADP-Glo kinase assay (Promega) according to the manufacturer instructions. Compounds were added in 11-points dose response, starting at […], 1:3 dilutions, with a final DMSO concentration of 2%. The multidrop combi was used as a liquid handler and luminescence was read with 0.5 s by the envision reader (PE).

The target in experiment [2] is Diacylglycerol kinase zeta (Homo sapiens, UniProt Q13574).

SMILES strings stand for the structures.

Chain of Diacylglycerol kinase alpha (P23743 whole entry): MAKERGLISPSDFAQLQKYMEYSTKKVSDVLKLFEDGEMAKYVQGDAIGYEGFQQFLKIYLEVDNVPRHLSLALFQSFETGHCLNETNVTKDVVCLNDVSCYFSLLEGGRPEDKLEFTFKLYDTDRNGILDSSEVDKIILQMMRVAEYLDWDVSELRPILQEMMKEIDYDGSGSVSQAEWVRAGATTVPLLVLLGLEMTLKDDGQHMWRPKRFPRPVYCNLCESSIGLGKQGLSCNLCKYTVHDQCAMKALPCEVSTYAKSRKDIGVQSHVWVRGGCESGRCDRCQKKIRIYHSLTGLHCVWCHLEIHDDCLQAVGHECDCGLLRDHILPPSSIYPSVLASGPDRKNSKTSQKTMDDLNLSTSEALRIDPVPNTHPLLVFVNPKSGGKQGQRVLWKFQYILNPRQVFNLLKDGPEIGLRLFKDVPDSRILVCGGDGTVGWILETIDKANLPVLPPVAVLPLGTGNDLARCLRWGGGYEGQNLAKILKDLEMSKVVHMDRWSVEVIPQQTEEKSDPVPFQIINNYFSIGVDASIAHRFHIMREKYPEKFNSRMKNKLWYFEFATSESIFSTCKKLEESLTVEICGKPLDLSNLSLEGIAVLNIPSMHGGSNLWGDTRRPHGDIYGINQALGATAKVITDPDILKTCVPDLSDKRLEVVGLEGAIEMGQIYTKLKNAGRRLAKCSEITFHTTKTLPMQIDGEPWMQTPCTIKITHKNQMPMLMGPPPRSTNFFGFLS
Chain of Diacylglycerol kinase zeta (Q13574 as listed by the source): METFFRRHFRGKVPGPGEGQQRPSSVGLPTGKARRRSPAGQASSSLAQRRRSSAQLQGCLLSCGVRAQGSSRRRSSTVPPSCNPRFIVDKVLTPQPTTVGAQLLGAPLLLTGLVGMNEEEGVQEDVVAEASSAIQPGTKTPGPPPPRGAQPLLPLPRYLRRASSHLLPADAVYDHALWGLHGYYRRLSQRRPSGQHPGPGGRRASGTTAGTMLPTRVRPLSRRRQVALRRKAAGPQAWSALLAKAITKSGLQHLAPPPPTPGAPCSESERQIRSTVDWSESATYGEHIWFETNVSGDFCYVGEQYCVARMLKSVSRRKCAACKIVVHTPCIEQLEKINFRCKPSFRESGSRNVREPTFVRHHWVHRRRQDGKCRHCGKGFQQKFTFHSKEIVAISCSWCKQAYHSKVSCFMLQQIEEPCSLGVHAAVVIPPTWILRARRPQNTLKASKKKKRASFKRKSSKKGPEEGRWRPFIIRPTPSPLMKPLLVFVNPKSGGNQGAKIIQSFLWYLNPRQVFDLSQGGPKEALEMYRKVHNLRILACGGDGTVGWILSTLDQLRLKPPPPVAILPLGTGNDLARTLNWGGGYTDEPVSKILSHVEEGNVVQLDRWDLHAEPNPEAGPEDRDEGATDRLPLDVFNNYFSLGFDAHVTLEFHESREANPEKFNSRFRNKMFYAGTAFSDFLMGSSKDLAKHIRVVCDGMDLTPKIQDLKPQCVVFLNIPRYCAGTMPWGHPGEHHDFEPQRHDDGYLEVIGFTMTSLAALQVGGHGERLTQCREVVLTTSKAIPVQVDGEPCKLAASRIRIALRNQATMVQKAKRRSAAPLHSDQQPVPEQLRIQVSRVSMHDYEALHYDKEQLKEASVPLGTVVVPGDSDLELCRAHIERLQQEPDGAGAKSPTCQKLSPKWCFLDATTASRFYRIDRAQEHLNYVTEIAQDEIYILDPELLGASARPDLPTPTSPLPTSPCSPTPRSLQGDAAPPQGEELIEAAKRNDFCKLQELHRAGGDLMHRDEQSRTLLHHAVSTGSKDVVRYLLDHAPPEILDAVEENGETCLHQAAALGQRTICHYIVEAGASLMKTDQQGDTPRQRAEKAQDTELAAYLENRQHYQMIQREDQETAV

For the molecule `CN(C)C(=O)c1nnc(-c2cc3c(cc2F)S(=O)(=O)C[C@H](N)C(=O)N3Cc2ccc(Cl)cc2)o1` [US20240368150, Example 87], the IC50 (usually the concentration that inhibits the measured activity by half) was found to be 3.06 µM in experiment [1] and 3.67 µM in experiment [2].
Taken in the same sequence, the figures for `COC1(c2nnc(-c3ccc4c(c3)N(Cc3ccc(Cl)cc3)C(=O)[C@@H](N)CS4(=O)=O)o2)CCC(F)(F)CC1` [US20240368150, Example 378] were 4.06 µM and 1.44 µM.
